From US12559769B2, “Methods and compositions for the activation of tumor cytotoxicity via human gamma-delta t-cells” (priority 2017, dated 2026)

System: Vγ9Vδ2 T cells
Assay: Activation of Vγ9Vδ2 T cells (TNF-α, flow cytometry) by THP-1 monocytic leukemia cells co-cultured with expanded PBMC
Type: cell-based, human
Procedure: THP-1 cells (2×10^5 cells) were transduced with LV-control or LV-miR30 FDPS #1 (SEQ ID NO: 68) for 7 days. Cells were treated with or without 1 μM zoledronic acid. After 24 hours, the transduced THP-1 cells were co-cultured for 4 hours with 2×10^5 PBMC cells in 5 mL round-bottom tubes. The PBMC cells had been pre-stimulated with zoledronic acid plus IL-2 for at least 11 days to expand Vγ9Vδ2 T cells. After staining for Vγ9Vδ2 and TNF-α using fluorophore-conjugated anti TCR-Vδ2 and anti-TNF-α antibody, cells were analyzed via flow cytometry. Live cells were gated; Vδ2+ and TNF-α+ cells were identified on a dot blot. The activated cytotoxic Vγ9Vδ2 T cells appeared in the upper right quadrant of the flow cytograms. Without zoledronic acid, LV-control stimulated 2.44% of TNF-α expressing Vγ9Vδ2 T cells and LV-miR30 FDPS #1 (SEQ ID NO: 68) stimulated 28.4%. With zoledronic acid treatment, LV-control stimulated 23.8% of TNF-α expressing Vγ9Vδ2 T cells and LV-miR30 FDPS #1 (SEQ ID NO: 68) stimulated 61.4%.
THP-1 cells were transduced with LV-control or LV-FDPS shRNA #4 (SEQ ID NO: 4) or Lv-GGPS1 shRNA #1 (SEQ ID NO: 70) for 3 days. Two days after transduction, cells were treated with or without 1 μM zoledronic acid. After 24 hours, the transduced THP-1 cells were co-cultured for 4 hours with 5×10^5 PBMC cells in a round bottom 96 well plate. The PBMC cells had been pre-stimulated with zoledronic acid plus IL-2 for at least 11 days to expand Vγ9Vδ2 T cells. After staining for Vγ9Vδ2 and TNF-α using fluorophore-conjugated anti TCR-Vδ2 and anti-TNF-α antibody, cells were analyzed via flow cytometry. Live cells were gated; Vδ2+ and TNF-α+ cells were identified on a dot blot. The activated cytotoxic Vγ9Vδ2 T cells appeared in the upper right quadrant of the flow cytograms. Without zoledronic acid, LV-control stimulated 1.33% of TNF-α expressing Vγ9Vδ2 T cells whereas Lv-FDPS shRNA #4 (SEQ ID NO: 4) stimulated 2.49%, Lv-GGPS1 #1 shRNA (SEQ ID NO: 70) stimulated 1.22%, and both combined stimulated 1.91%. With zoledronic acid treatment, Lv-control stimulated 5.74% of TNF-α expressing Vγ9Vδ2 T cells, whereas Lv-FDPS shRNA #4 (SEQ ID NO: 4) stimulated 10.8%, Lv-GGPS1 shRNA #1 (SEQ ID NO: 70) stimulated 4.5%, and both combined stimulated 11.5%.
ZA is a small molecule inhibitor of squalene synthase in the pathway committed to sterol synthesis. THP-1 cells were treated with either the FDPS inhibitor Zol (10 μM), the famesyl transferase inhibitor FTI (10 μM), or ZA (50 μM) for 24 hours. THP-1 cells (2.5×10^5) were co-cultured with 2.5×10^5 PBMC cells in a round bottom 96 well plate for 5 hours. The PBMC cells had been pre-stimulated with zoledronic acid plus IL-2 for at least 11 days to expand Vγ9Vδ2 T cells. After staining for Vγ9Vδ2 and TNF-α using fluorophore-conjugated anti TCR-Vδ2 and anti-TNF-α antibody, cells were analyzed via flow cytometry. Live cells were gated; Vδ2+ and TNF-α+ cells were identified on a dot blot. The activated cytotoxic Vγ9Vδ2 T cells appeared in the upper right quadrant of the flow cytograms. Untreated cells stimulated 3.08% of TNF-α expressing Vγ9Vδ2 T cells, whereas zoledronic acid treatment stimulated 40.1%, FT1277 treatment stimulated 11.7%, and zaragozic acid stimulated 2.13%.

[1] = Example 24, FIG. 28, THP-1 cells treated 10 μM for 24 hours, untreated cells 3.08%

| SMILES | percent of TNF-α expressing Vγ9Vδ2 T cells [1] [%] | percent of TNF-α expressing Vγ9Vδ2 T cells (Example 24, FIG. 28, THP-1 cells treated 50 μM for 24 hours, untreated cells 3.08%) [%] | percent of TNF-α expressing Vγ9Vδ2 T cells (Example 17, LV-control transduced THP-1 cells, 1 μM zoledronic acid) [%] | percent of TNF-α expressing Vγ9Vδ2 T cells (Example 21, Lv-control transduced THP-1 cells, 1 μM zoledronic acid) [%] |
| --- | --- | --- | --- | --- |
| COC(=O)[C@H](CCSC)NC(=O)c1ccc(NC[C@@H](N)CS)cc1-c1ccccc1 [FT1277] | 11.7 |  |  |  |
| C=C(CC[C@]12O[C@H](C(=O)O)[C@@](O)(C(=O)O)[C@](C(=O)O)(O1)[C@H](OC(=O)/C=C/[C@@H](C)C[C@@H](C)CC)[C@H]2O)[C@@H](OC(C)=O)[C@H](C)Cc1ccccc1 [zaragozic acid] |  | 2.13 |  |  |
| O=P(O)(O)C(O)(Cn1ccnc1)P(=O)(O)O [zoledronic acid] | 40.1 |  | 23.8 | 5.74 |
